# Source: patent publication US20250304549A1, “HYDROXYAMIDE DERIVATIVE AND USE THEREOF” (SICHUAN HUIYU PHARMACEUTICAL CO., LTD., priority 2022, published 2025)
# Counter-ions that a name gives are not always drawn.
# Legend:
# [1] = test system: NCI-H1417 cells; assay: In vitro cell inhibition assay - H1417 cell proliferation (CellTiter-Glo); assay type: cell-based
# Procedure, shortened: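 Cells exposed to 8 compound concentrations (5-fold dilutions) in BEGM with 10% FBS for 7 days at 37° C., 5% CO2. Viable cells measured by CellTiter-Glo luminescence; inhibition versus no-inhibitor and no-cell controls, IC50 fitted.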
# [2] = target: HDAC1 (Homo sapiens (Human), UniProt Q13547); assay: In vitro enzyme inhibition assay - HDAC (HDAC-Glo I/II), HDAC1; assay type: biochemical; details: read-out: HDAC IC50 (nM) HDAC 1
# Protocol: 2. In Vitro Enzyme Inhibition Assay—HDAC
# The effect of the compound on the enzymatic activity of pan-HDAC and two isoforms (HDAC1 and HDAC8) was examined using the HDAC-Glo I/II Assay and Screening System assay to assess the level of inhibition of HDAC protease activity and selectivity in each isoform. The proteins and detection reagents were from the HDAC-Glo™ I/II Assay and Screening System (Promega). A 1 mM stock solution of the compound was prepared in DMSO and diluted in a 5-fold gradient to create a series of 8 concentrations, and a specific volume of the highest concentration was diluted 25 times with HDAC Buffer to obtain 4× working solution of the compound. […] The 384-well plate was then read on a multifunctional microplate reader, with the Luminescence channel selected to record Luminescence values (RLU). The inhibition rate was calculated using the following formula: […]
# Note: ‘Negative’ refers to the group without the inhibitor; ‘Blank’ refers to the group without the enzyme.
# The IC50 value was calculated by fitting the inhibition rate by GraphPad Prism software, employing log (inhibitor) vs. response-Variable Slope (four parameters) model.
# [3] = target: pan-HDAC; assay: In vitro enzyme inhibition assay - HDAC (HDAC-Glo I/II), pan-HDAC; assay type: biochemical
# Procedure, shortened: (§1)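 Eight compound concentrations (5-fold steps from a 1 mM DMSO stock) tested against pan-HDAC, HDAC1 and HDAC8 with HDAC-Glo I/II reagents, luminescence read-out. Percent inhibition normalized to no-inhibitor and no-enzyme wells; IC50 derived by four-parameter logistic fit.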
# [4] = target: LSD1 (Homo sapiens (Human), UniProt O60341); assay: In vitro enzyme inhibition assay - LSD1 (HTRF); assay type: biochemical
# [5] = target: HDAC8 (Homo sapiens (Human), UniProt Q9BY41); assay: In vitro enzyme inhibition assay - HDAC (HDAC-Glo I/II), HDAC8; assay type: biochemical; details: read-out: HDAC IC50 (nM) HDAC 8
# Procedure, shortened: as §1
# [6] = test system: NCI-H526 cells; assay: In vitro cell inhibition assay - NCI-H526 cell proliferation (CellTiter-Glo); assay type: cell-based; details: H526 small cell lung cancer cell proliferation, 5 days
# Procedure, shortened: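 NCI-H526 cells plated at 1×10^3 per well overnight, then treated with 8 concentrations (5-fold dilutions) in RPMI-640 with 10% FBS for 5 days at 37° C., 5% CO2. Viable cells quantified by CellTiter-Glo luminescence; IC50 fitted from inhibition rates relative to no-inhibitor and no-cell controls.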
# [7] = test system: NCI-H69 cells; assay: In vitro cell inhibition assay - NCI-H69 cell proliferation (CellTiter-Glo); assay type: cell-based
# Procedure, shortened: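 Luminescence from CellTiter-Glo reagent served as the viability read-out after cells were exposed to compounds for 7 days at 37° C. Eight concentrations in a 5-fold series were tested in medium with 20% FBS. Inhibition was normalised to untreated and cell-free wells before IC50 fitting.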
# [8] = test system: DU145 cells; assay: In vitro cell inhibition assay - DU145 cell proliferation (CellTiter-Glo); assay type: cell-based
# Procedure, shortened: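 DU145 cells were seeded at 1×10^3 per well, exposed next day to an 8-point, 5-fold compound dilution series in RPMI-640 with 10% FBS, and incubated 6 days at 37° C. Viable cells were measured by CellTiter-Glo luminescence, and IC50 was fitted from inhibition rates relative to no-inhibitor and no-cell controls.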
# [9] = Homo sapiens, NCI-H1417, H1417 small cell lung cancer cell proliferation
# [10] = Homo sapiens, NCI-H69, H69 small cell lung cancer cell proliferation
# [11] = Homo sapiens, DU-145, Du145 prostate cancer cell proliferation
# [12] = H1417 small cell lung cancer cell proliferation
# [13] = H69 small cell lung cancer cell proliferation
# [14] = Du145 prostate cancer cell proliferation
# HDAC1, sequence (Q13547 whole entry): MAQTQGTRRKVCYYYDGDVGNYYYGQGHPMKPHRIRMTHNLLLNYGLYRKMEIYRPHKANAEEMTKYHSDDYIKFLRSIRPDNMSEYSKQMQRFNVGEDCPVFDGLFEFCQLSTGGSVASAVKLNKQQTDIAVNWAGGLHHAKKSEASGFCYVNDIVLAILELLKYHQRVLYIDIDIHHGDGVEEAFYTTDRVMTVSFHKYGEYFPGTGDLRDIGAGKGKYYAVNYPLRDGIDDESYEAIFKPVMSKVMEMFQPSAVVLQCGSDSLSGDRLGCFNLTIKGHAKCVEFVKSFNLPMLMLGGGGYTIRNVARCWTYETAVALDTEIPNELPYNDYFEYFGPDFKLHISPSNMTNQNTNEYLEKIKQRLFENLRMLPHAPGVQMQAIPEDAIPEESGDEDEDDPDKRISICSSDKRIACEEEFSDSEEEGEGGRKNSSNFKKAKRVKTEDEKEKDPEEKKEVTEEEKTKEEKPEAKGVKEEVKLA
# HDAC8, sequence (Q9BY41 whole entry): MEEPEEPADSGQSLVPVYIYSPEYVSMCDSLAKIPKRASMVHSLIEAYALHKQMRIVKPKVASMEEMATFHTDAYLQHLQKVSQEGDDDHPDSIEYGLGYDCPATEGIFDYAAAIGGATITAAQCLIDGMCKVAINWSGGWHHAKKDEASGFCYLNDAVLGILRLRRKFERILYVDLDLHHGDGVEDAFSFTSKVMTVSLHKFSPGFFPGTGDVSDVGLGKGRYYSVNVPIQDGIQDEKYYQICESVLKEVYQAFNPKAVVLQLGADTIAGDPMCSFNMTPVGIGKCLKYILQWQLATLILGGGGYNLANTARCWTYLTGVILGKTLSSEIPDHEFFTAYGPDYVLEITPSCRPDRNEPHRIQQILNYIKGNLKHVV
Structure (SMILES),"IC50 [1, 9] [nM]",IC50 [2] [nM],IC50 [3] [nM],IC50 [4] [nM],IC50 [5] [nM],"IC50 ([6]; Homo sapiens, NCI-H526, 120 h) [nM]","IC50 [7, 10] [nM]","IC50 [8, 11] [nM]",IC50 [6] [nM],"IC50 [1, 12] [nM]","IC50 [7, 13] [nM]","IC50 [8, 14] [nM]"
"N#Cc1ccc(-c2nc(N3CCC(N)CC3)n3ccnc3c2-c2ccc(OCCCCCCC(=O)NO)c(O)c2)cc1F [Example 21, 7-(4-(5-(4-Aminopiperidin-1-yl)-7-(4-cyano-3-fluorophenyl)imidazo[1,2-c]pyrimidin-8-yl)-2-hydroxyphenoxy)-N-hydroxyheptanamide hydrochloride]",65,400,119,0.05,275,,,,,,,
"COc1ccc(-c2cnc(N3CCC(NCc4ccc(/C=C/C(=O)NO)cc4)CC3)cc2-c2ccc(C#N)c(F)c2)cc1O [Example 80, (E)-3-(4-(((1-(4-(4-cyano-3-fluorophenyl)-5-(3-hydroxy-4-methoxyphenyl)pyridin-2-yl)piperidin-4-yl)amino)methyl)phenyl)-N-hydroxyacrylamide formate]",14,,14.9,,165,29.3,27.8,56.5,,,,
"COc1cc(N2CCC(N)CC2)nc(-c2ccc(C#N)c(F)c2)c1-c1ccc(/C=C/C(=O)NO)c(O)c1 [Example 28, (E)-3-(4-(6-(4-Amino-piperidin-1-yl)-2-(4-cyano-3-fluorophenyl)-4-methoxypyridin-3-yl)-2-hydroxyphenyl)-N-hydroxyacrylamide formate]",25.5,608,270,0.64,2330,,,,,,,
"CNC1CCN(c2ncc(-c3ccc(OCCCCCCC(=O)NO)c(O)c3)c(-c3ccc(C#N)c(F)c3)c2C#N)CC1 [Example 24, 7-(4-(5-cyano-4-(4-cyano-3-fluorophenyl)-6-(4-(methylamino)piperidin-1-yl)pyridin-3-yl)-2-hydroxyphenoxy)-N-hydroxyheptanamide hydrochloride]",42.3,8.28,5.83,0.41,118,,,,,,,
"COc1cc(N2CCC(N)CC2)nc(-c2ccc(C#N)c(F)c2)c1-c1ccc(OC/C=C/C(=O)NO)c(O)c1 [Example 29, (E)-4-(4-(6-(4-Amino-piperidin-1-yl)-2-(4-cyano-3-fluorophenyl)-4-methoxypyridin-3-yl)-2-hydroxyphenoxy)-N-hydroxybut-2-enamide hydrochloride]",92.2,123,66.9,0.96,696,,3200,,,,,
"COc1ccc(-c2ccc(N3CCC(NCc4ccc(/C=C/C(=O)NO)cc4)CC3)c(C#N)c2-c2ccc(C#N)c(F)c2)cc1O [Example 84, (E)-3-(4-(((1-(3′,4″-dicyano-3″-fluoro-3-hydroxy-4-methoxy-[1,1′:2′,1″-terphenyl]-4′-yl)piperidin-4-yl)amino)methyl)phenyl)-N-hydroxyacrylamide]",4,,5.45,0.62,73.6,68.4,32.9,116,,,,
"COc1ccc(-c2cnc(N3CCC(NCc4ccc5cc(C(=O)NO)sc5c4)CC3)c(C#N)c2-c2ccc(C#N)c(F)c2)cc1O [Example 126, 6-(1-(3-Cyano-4-(4-cyano-3-fluorophenyl)-5-(3-hydroxy-4-methoxyphenyl)pyridin-2-yl)piperidin-4-yl)amino)methyl)-N-hydroxybenzothio phene-2-carboxamide formate]",1.76,,197,1.11,132,280,284,715,,,,
"COc1ccc(-c2c(-c3ccc(C#N)c(F)c3)nc(N3CCC(N)CC3)n3ccnc23)cc1OCCCCCCC(=O)NO [Example 20, 7-(5-(5-(4-aminopiperidin-1-yl)-7-(4-cyano-3-fluorophenyl)imidazo[1,2-c]pyrimidin-8-yl)-2-methoxyphenoxy)-N-hydroxyheptanamide hydrochloride]",845,311,96.5,16.9,446,,,,,,,
"COc1ccc(-c2cnc(N3CCC(NCc4ccc(/C=C/C(=O)NO)nc4)CC3)c(C#N)c2-c2ccc(C#N)c(F)c2)cc1O [Example 117, (E)-3-(5-((1-(3-Cyano-4-(4-cyano-3-fluorophenyl)-5-(3-hydroxy-4-methoxyphenyl)pyridin-2-yl)piperidin-4-yl)amino)methyl) pyridin-2-yl)-N-hydroxyacrylamide formate]",,,0.8,0.36,13,,,,4.54,1.7,4.21,10.4
"Cc1ccc(-c2c(-c3ccc(C#N)c(F)c3)nc(N3CCC(NCCCCCCC(=O)NO)CC3)n3ccnc23)cc1O [Example 34, 7-(1-(7-(4-cyano-3-fluorophenyl)-8-(3-hydroxy-4-methylphenyl)imidazo[1,2-c]pyrimidin-5-yl)piperidin-4-yl)amino)-N-hydroxyheptanamide Hydrochloride]",,1060,552,1.13,353,,,,,140,,
"COc1ccc(-c2cnc(N3CCC(NCc4ccc(/C=C/C(=O)NO)cc4)CC3)c(C#N)c2-c2ccc(C#N)c(F)c2)cc1O [Example 37, (E)-3-(4-(((1-(3-cyano-4-(4-cyano-3-fluorophenyl)-5-(3-hydroxy-4-methoxyphenyl)pyridin-2-yl)piperidin-4-yl)amino)methyl)phenyl)-N-hydroxyacrylamide hydrochloride]",6.56,,,1.95,,10.3,8.52,26,,,,
"COc1ncc(-c2cnc(N3CCC(NCc4ccc(/C=C/C(=O)NO)cc4)CC3)c(C#N)c2-c2ccc(C#N)c(F)c2)cc1O [Example 123, (E)-3-(4-((1-(5-Cyano-4-(4-cyano-3-fluorophenyl)-5′-hydroxy-6′-methoxy-[3,3′-bipyridin]-6-yl)piperidin-4-yl)amino)methyl) phenyl)-N-hydroxyacrylamide trifluoroacetate]",,,,0.74,,,,,71.3,4.2,76.3,112
"COc1ccc(-c2c(OCCCCCCC(=O)NO)cc(N3CCC(N)CC3)nc2-c2ccc(C#N)c(F)c2)cc1O [Example 1, 7-((6-(4-aminopiperidin-1-yl)-2-(4-cyano-3-fluorophenyl)-3-(3-hydroxy-4-methoxyphenyl)pyridin-4-yl)oxy)-N-hydroxyheptanamide hydrochloride]",216,68.1,17.5,,215,,,,,,,
"COc1cc(-c2cnc(N3CCC(NCc4cnc(/C=C/C(=O)NO)nc4)CC3)c(C#N)c2-c2ccc(C#N)c(F)c2)ccc1O [Example 96, (E)-3-(5-((1-(3-Cyano-4-(4-cyano-3-fluorophenyl)-5-(4-hydroxy-3-methoxyphenyl)pyridin-2-yl)piperidin-4-yl)amino)methyl) pyrimidin-2-yl)-N-hydroxyacrylamide formate]",74.2,,16.4,39.9,16.3,108,101,149,,,,
"N#Cc1ccc(-c2c(-c3ccc4cn[nH]c4c3)cnc(N3CCC(NCc4ccc(/C=C/C(=O)NO)cc4)CC3)c2C#N)cc1F [Example 142, (E)-3-(4-(((1-(3-Cyano-4-(4-cyano-3-fluorophenyl)-5-(1H-indazol-6-yl)pyridin-2-yl)piperidin-4-yl)amino)methyl)phenyl)-N-hydroxyacrylamide formate]",7.59,,,1.8,,4.61,4.73,4.24,,,,
